Experimental findings from patent publication US20250145633A1, “SUBSTITUTED FURANOPYRIMIDINE COMPOUNDS AS PDE1 INHIBITORS” (Dart NeuroScience, LLC, priority 2017, published 2025) are described below.

For the test, the target named is human PDE1B enzyme (Homo sapiens (Human), UniProt Q01064). Nature of the test: IMAP TR-FRET PDE1B enzymatic assay. Type of test: biochemical. Conditions: negative log of half-maximal molar inhibitory concentration; 200 nM FAM-cAMP; values given as bins; read-out: PDE1b (pIC50) (converted). In outline:
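Full-length GST-tagged human PDE1B (250 pg/well) in IMAP BSA buffer with 10 U/ml calmodulin and 2.5 mM CaCl2; compound pre-incubated 5 min at room temperature, then 200 nM (final) FAM-cAMP for 30 min. IMAP binding reagent/Tb added, 1 h; TR-FRET 520/490 ratio read. IC50 from sigmoidal dose-response fit.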
Background: Time-resolved FRET reads energy transfer from a long-lived donor to a nearby acceptor.
Regarding `Cc1oc2ncnc(NC3(C)CC3)c2c1C(=O)NC1(c2ccc(F)cn2)CC1` [Example 281, N-[1-(5-Fluoropyridin-2-yl)cyclopropyl]-6-methyl-4-[(1-methylcyclopropyl)amino]furo[2,3-d]pyrimidine-5-carboxamide], the IC50 was 0.01 to 0.1 µM.

In the case of `Cc1oc2ncnc(NC3(C)CC3)c2c1C(=O)N1CCN(c2ccc(F)nc2)CC1` [Example 282, 5-[4-(6-Fluoropyridin-3-yl)piperazine-1-carbonyl]-6-methyl-N-(1-methylcyclopropyl)furo[2,3-d]pyrimidin-4-amine], the IC50 was 0.01 to 0.1 µM.

As for `Cc1cc2c(cn1)CCN(C(=O)c1c(C)oc3ncnc(NC4(C)CC4)c13)C2` [Example 283, 6-Methyl-5-(7-methyl-1,2,3,4-tetrahydro-2,6-naphthyridine-2-carbonyl)-N-(1-methylcyclopropyl)furo[2,3-d]pyrimidin-4-amine], the IC50 is 0.01 to 0.1 µM.

On to `Cc1ccc2c(n1)CCN(C(=O)c1c(C)oc3ncnc(NC4(C)CC4)c13)C2` [Example 284, 6-Methyl-5-(2-methyl-5,6,7,8-tetrahydro-1,6-naphthyridine-6-carbonyl)-N-(1-methylcyclopropyl)furo[2,3-d]pyrimidin-4-amine], for which the IC50 was 0.01 to 0.1 µM.

Consider `Cc1oc2ncnc(NC3(C)CC3)c2c1C(=O)N1CCc2c(ccnc2Cl)C1` [Example 285, 5-(5-Chloro-1,2,3,4-tetrahydro-2,6-naphthyridine-2-carbonyl)-6-methyl-N-(1-methylcyclopropyl)furo[2,3-d]pyrimidin-4-amine], for which the IC50 was 0.01 to 0.1 µM.

Turning to `Cc1oc2ncnc(NC3(C)CC3)c2c1C(=O)N1CCc2ccc(Cl)nc2C1` [Example 286, 5-(2-Chloro-5,6,7,8-tetrahydro-1,7-naphthyridine-7-carbonyl)-6-methyl-N-(1-methylcyclopropyl)furo[2,3-d]pyrimidin-4-amine], the IC50 was 0.01 to 0.1 µM.

Regarding `Cc1oc2ncnc(NC3(C)CC3)c2c1C(=O)N1CCc2nc(Cl)ccc2C1` [Example 287, 5-(2-Chloro-5,6,7,8-tetrahydro-1,6-naphthyridine-6-carbonyl)-6-methyl-N-(1-methylcyclopropyl)furo[2,3-d]pyrimidin-4-amine], the IC50 is 0.01 to 0.1 µM.

Consider `Cc1oc2ncnc(NC3(C)CC3)c2c1C(=O)N1CCc2nnc(Cl)cc2C1` [Example 288, 5-{3-Chloro-5H,6H,7H,8H-pyrido[4,3-c]pyridazine-6-carbonyl}-6-methyl-N-(1-methylcyclopropyl)furo[2,3-d]pyrimidin-4-amine], for which the IC50 was 0.1 to 1 µM.

With `Cc1oc2ncnc(NC3(C)CC3)c2c1C(=O)N1CCc2nc(Cl)ncc2C1` [Example 289, 5-{2-Chloro-5H,6H,7H,8H-pyrido[4,3-d]pyrimidine-6-carbonyl}-6-methyl-N-(1-methylcyclopropyl)furo[2,3-d]pyrimidin-4-amine], the IC50 was 0.01 to 0.1 µM.

On to `Cc1oc2ncnc(NC3(C)CC3)c2c1C(=O)N1CCc2nc(C3CCOCC3)ccc2C1` [Example 290, 6-Methyl-N-(1-methylcyclopropyl)-5-[2-(oxan-4-yl)-5,6,7,8-tetrahydro-1,6-naphthyridine-6-carbonyl]furo[2,3-d]pyrimidin-4-amine], for which the IC50 is 0.01 to 0.1 µM.

Turning to `Cc1oc2ncnc(NC3(C)CC3)c2c1C(=O)NCc1cccnc1F` [Example 291, N-[(2-Fluoropyridin-3-yl)methyl]-6-methyl-4-[(1-methylcyclopropyl)amino]furo[2,3-d]pyrimidine-5-carboxamide], the IC50 was 0.01 to 0.1 µM.

For the compound `Cc1oc2ncnc(NC3(C)CC3)c2c1C(=O)NCc1ncc(F)cn1` [Example 292, N-[(5-Fluoropyrimidin-2-yl)methyl]-6-methyl-4-[(1-methylcyclopropyl)amino]furo[2,3-d]pyrimidine-5-carboxamide], the IC50 was 0.01 to 0.1 µM.

`Cc1oc2ncnc(NC3(C)CC3)c2c1C(=O)NCc1ccc(F)nc1` [Example 293, N-[(6-Fluoropyridin-3-yl)methyl]-6-methyl-4-[(1-methylcyclopropyl)amino]furo[2,3-d]pyrimidine-5-carboxamide]: the IC50 was 0.01 to 0.1 µM.
